Values of other authors as cited in PMC3309614 (Journal of the American Chemical Society, 2011).

Test system: kinesin-5 L214A
Details: L214A mutation in allosteric binding site

Question: For S-Trityl-L-cyteine [STLC], which “effect of L214A mutation on inhibition” value is on record?
Answer: Its value is “known to suppress STLC inhibition”.
